# Reference: EP3262942A1, “SELENODIARYLS FOR USE AS MICROBICIDE OR AS MEDICINE” (Evonik Degussa GmbH, priority 2016, dated 2018)
# Legend:
# [1] = test system: Candida albicans; assay: Growth test in microtiter plates, HA medium, 24 h, visual evaluation; format: cell-based; design: key: +: kein Wachstum im Vergleich zur Wachstumskontrolle; -: Wachstum wie Wachstumskontrolle
# [2] = test system: P. infestans; assay: microbe, parasite or virus in culture; format: cell-based, Phytophthora infestans; details: for inhibition of growth at 5 µg/mL / inhibition of growth at 10 µg/mL / inhibition of growth at 25 µg/mL / inhibition of growth at 50 µg/mL: Phytophthora infestans, 24 h, read-out: Aktivität gegenüber P. infestans
# [3] = test system: M. grisea H2O; assay: microbe, parasite or virus in culture; format: cell-based, Magnaporthe grisea; details: for inhibition of growth at 5 µg/mL / inhibition of growth at 10 µg/mL / inhibition of growth at 25 µg/mL / inhibition of growth at 50 µg/mL: Pyricularia grisea, H2O, 24 h, read-out: Aktivität gegenüber M. grisea H2O
# [4] = test system: Paecilomyces variotii; assay: Growth test in microtiter plates, HA medium, 24 h, visual evaluation; format: cell-based; design: key: +: kein Wachstum im Vergleich zur Wachstumskontrolle; -: Wachstum wie Wachstumskontrolle
# [5] = test system: Mucor miehei; assay: as above; format: cell-based; design: key to Aktivität gegenüber M. miehei: +: kein Wachstum im Vergleich zur Wachstumskontrolle; -: Wachstum wie Wachstumskontrolle
# [6] = test system: Lepidium sativum; assay: Crop plant growth test, seeds on filter discs, 4 days, visual evaluation; format: in vivo
# In short: (§1)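 Compounds dried from DMSO onto filter discs; about 12 seeds per well with 200 µl sterile tap water, incubated 4 days in a humid chamber under 16 h light/8 h dark. Visual scoring: + means at least 75 % growth inhibition versus control, − means less than 75 %.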
# [7] = test system: Setaria italica; assay: as above; format: in vivo
# In short: as §1
# [8] = test system: M. grisea CM; assay: microbe, parasite or virus in culture; format: cell-based, Magnaporthe grisea; details: for inhibition of growth at 5 µg/mL / inhibition of growth at 10 µg/mL / inhibition of growth at 25 µg/mL / inhibition of growth at 50 µg/mL: Pyricularia grisea, 24 h, read-out: Aktivität gegenüber M. grisea CM
# [9] = test system: alle getesteten Pathogene; format: cell-based; details: 5-50 µg/mL
# [10] = test system: Penicillium notatum; assay: Growth test in microtiter plates, HA medium, 24 h, visual evaluation; format: cell-based; design: key: +: kein Wachstum im Vergleich zur Wachstumskontrolle; -: Wachstum wie Wachstumskontrolle
# [11] = test system: Botrytis cinerea; assay: microbe, parasite or virus in culture; format: cell-based; details: for inhibition of growth at 5 µg/mL / inhibition of growth at 10 µg/mL / inhibition of growth at 25 µg/mL / inhibition of growth at 50 µg/mL: Botrytis cinerea, 24 h, read-out: Aktivität gegenüber B. cinerea
SMILES,Aktivität gegenüber C. albicans ([1]; 10µg/mL),Aktivität gegenüber C. albicans ([1]; 50µg/mL),inhibition of growth at 5 µg/mL [2] [%],inhibition of growth at 10 µg/mL [2] [%],inhibition of growth at 25 µg/mL [2] [%],inhibition of growth at 50 µg/mL [2] [%],inhibition of growth at 5 µg/mL [3] [%],Aktivität gegenüber P. variotii ([4]; 10µg/mL),Aktivität gegenüber P. variotii ([4]; 50µg/mL),Aktivität gegenüber M. miehei ([5]; 10µg/mL),Aktivität gegenüber M. miehei ([5]; 50µg/mL),Aktivität gegenüber Nutzpflanzen: L. sativum ([6]; 10µg/R),Aktivität gegenüber Nutzpflanzen: L. sativum ([6]; 20µg/R),Aktivität gegenüber Nutzpflanzen: L. sativum ([6]; 50µg/R),Aktivität gegenüber Nutzpflanzen: S. italica ([7]; 10µg/R),Aktivität gegenüber Nutzpflanzen: S. italica ([7]; 20µg/R),Aktivität gegenüber Nutzpflanzen: S. italica ([7]; 50µg/R),Aktivität im Wachstums- und Keimungshemmungstest gegen die getesteten Pathogene [9],Aktivität gegenüber P. notatum ([10]; 10µg/mL),Aktivität gegenüber P. notatum ([10]; 50µg/mL),other results
"COc1cc(C)cc([Se]c2cc(C)cc(OC)c2O)c1O [Verbindung 20, Bis(2-hydroxy-3-methoxy-5-methylphenyl)selen]",-,-,0 to 25,0 to 25,> 75,> 75,25 to 50,-,-,-,-,- (weniger als 75 % Wachstumshemmung im Vergleich zur Kontrolle),- (weniger als 75 % Wachstumshemmung im Vergleich zur Kontrolle),- (weniger als 75 % Wachstumshemmung im Vergleich zur Kontrolle),- (weniger als 75 % Wachstumshemmung im Vergleich zur Kontrolle),- (weniger als 75 % Wachstumshemmung im Vergleich zur Kontrolle),- (weniger als 75 % Wachstumshemmung im Vergleich zur Kontrolle),fungizider Effekt,-,-,inhibition of growth at 10 µg/mL [3]: > 75%; inhibition of growth at 25 µg/mL [3]: > 75%; inhibition of growth at 50 µg/mL [3]: > 75%; inhibition of growth at 5 µg/mL [8]: 25 to 50%; inhibition of growth at 10 µg/mL [8]: > 75%; inhibition of growth at 25 µg/mL [8]: > 75%; inhibition of growth at 50 µg/mL [8]: > 75%; inhibition of growth at 5 µg/mL ([11]; 5µg/mL): 0 to 25%; inhibition of growth at 10 µg/mL ([11]; 10µg/mL): 0 to 25%; inhibition of growth at 25 µg/mL ([11]; 25µg/mL): 0 to 25%; inhibition of growth at 50 µg/mL ([11]; 50µg/mL): 0 to 25%
"Oc1c(Cl)cc(F)cc1[Se]c1cc(F)cc(Cl)c1O [Verbindung 24, Bis(3-chlor-5-fluor-2-hydroxyphenyl)selen]",+,+,> 75,> 75,> 75,> 75,> 75,+,-,+,+,- (weniger als 75 % Wachstumshemmung im Vergleich zur Kontrolle),+ (mind. 75 % Wachstumshemmung im Vergleich zur Kontrolle),- (weniger als 75 % Wachstumshemmung im Vergleich zur Kontrolle),- (weniger als 75 % Wachstumshemmung im Vergleich zur Kontrolle),+ (mind. 75 % Wachstumshemmung im Vergleich zur Kontrolle),- (weniger als 75 % Wachstumshemmung im Vergleich zur Kontrolle),durchgehende Aktivität gegen alle Pathogene,+,+,inhibition of growth at 10 µg/mL [3]: > 75%; inhibition of growth at 25 µg/mL [3]: > 75%; inhibition of growth at 50 µg/mL [3]: > 75%; Effekt auf L. sativum [6]: deutlichen negativen Effekt; Effekt auf S. italica [7]: deutlichen negativen Effekt; inhibition of growth at 5 µg/mL [8]: > 75%; inhibition of growth at 10 µg/mL [8]: > 75%; inhibition of growth at 25 µg/mL [8]: > 75%; inhibition of growth at 50 µg/mL [8]: > 75%; mikrobizide Wirksamkeit gegenüber B. cinerea [11]: mikrobizide Wirksamkeit; inhibition of growth at 5 µg/mL ([11]; 5µg/mL): > 75%; inhibition of growth at 10 µg/mL ([11]; 10µg/mL): > 75%; inhibition of growth at 25 µg/mL ([11]; 25µg/mL): > 75%; inhibition of growth at 50 µg/mL ([11]; 50µg/mL): > 75%
"Oc1c(F)cc(F)cc1[Se]c1cc(F)cc(F)c1O [Verbindung 25, Bis(3,5-difluoro-2-hydroxyphenyl)selen]",-,+,,,,,,+,-,+,+,- (weniger als 75 % Wachstumshemmung im Vergleich zur Kontrolle),+ (mind. 75 % Wachstumshemmung im Vergleich zur Kontrolle),- (weniger als 75 % Wachstumshemmung im Vergleich zur Kontrolle),- (weniger als 75 % Wachstumshemmung im Vergleich zur Kontrolle),+ (mind. 75 % Wachstumshemmung im Vergleich zur Kontrolle),- (weniger als 75 % Wachstumshemmung im Vergleich zur Kontrolle),durchgehende Aktivität gegen alle Pathogene,+,+,Aktivität gegenüber P. infestans ([2]; 5µg/mL): +++ (mehr als 75 % der Sporen nicht gekeimt); Aktivität gegenüber P. infestans ([2]; 10µg/mL): +++ (mehr als 75 % der Sporen nicht gekeimt); Aktivität gegenüber P. infestans ([2]; 25µg/mL): +++ (mehr als 75 % der Sporen nicht gekeimt); Aktivität gegenüber P. infestans ([2]; 50µg/mL): +++ (mehr als 75 % der Sporen nicht gekeimt); Aktivität gegenüber M. grisea H2O ([3]; 5µg/mL): +++ (mehr als 75 % der Sporen nicht gekeimt); Aktivität gegenüber M. grisea H2O ([3]; 10µg/mL): +++ (mehr als 75 % der Sporen nicht gekeimt); Aktivität gegenüber M. grisea H2O ([3]; 25µg/mL): +++ (mehr als 75 % der Sporen nicht gekeimt); Aktivität gegenüber M. grisea H2O ([3]; 50µg/mL): +++ (mehr als 75 % der Sporen nicht gekeimt); Effekt auf L. sativum [6]: deutlichen negativen Effekt; Effekt auf S. italica [7]: deutlichen negativen Effekt; Aktivität gegenüber M. grisea CM ([8]; 5µg/mL): +++ (mehr als 75 % der Sporen nicht gekeimt); Aktivität gegenüber M. grisea CM ([8]; 10µg/mL): +++ (mehr als 75 % der Sporen nicht gekeimt); Aktivität gegenüber M. grisea CM ([8]; 25µg/mL): +++ (mehr als 75 % der Sporen nicht gekeimt); Aktivität gegenüber M. grisea CM ([8]; 50µg/mL): +++ (mehr als 75 % der Sporen nicht gekeimt); mikrobizide Wirksamkeit gegenüber B. cinerea [11]: mikrobizide Wirksamkeit; Aktivität gegenüber B. cinerea ([11]; 5µg/mL): + (key: +++: mehr als 75 % der Sporen nicht gekeimt; ++: zwischen 50 und 75 % der Sporen nicht gekeimt; +: zwischen 25 und 50 % der Sporen nicht gekeimt; -: zwischen 0 und 25 % der Sporen nicht gekeimt); Aktivität gegenüber B. cinerea ([11]; 10µg/mL): +++ (key: +++: mehr als 75 % der Sporen nicht gekeimt; ++: zwischen 50 und 75 % der Sporen nicht gekeimt; +: zwischen 25 und 50 % der Sporen nicht gekeimt; -: zwischen 0 und 25 % der Sporen nicht gekeimt); Aktivität gegenüber B. cinerea ([11]; 25µg/mL): +++ (key: +++: mehr als 75 % der Sporen nicht gekeimt; ++: zwischen 50 und 75 % der Sporen nicht gekeimt; +: zwischen 25 und 50 % der Sporen nicht gekeimt; -: zwischen 0 und 25 % der Sporen nicht gekeimt); Aktivität gegenüber B. cinerea ([11]; 50µg/mL): +++ (key: +++: mehr als 75 % der Sporen nicht gekeimt; ++: zwischen 50 und 75 % der Sporen nicht gekeimt; +: zwischen 25 und 50 % der Sporen nicht gekeimt; -: zwischen 0 und 25 % der Sporen nicht gekeimt)
